From patent US10647725B2, “Anti-infective 2-aminothiophenes” (priority 2016, dated 2020)
≈ marks a conversion by molar mass, not a printed value.

Tested on: Mtb strains INH-R1, INH-R2, RIF-R1, RIF-R2, FQ-R1
Test: microbe, parasite or virus in culture
Format: cell-based
Conditions: Mycobacterium tuberculosis; read-out: MIC against resistant isolates

**Q.** For `CCOC(=O)c1c(NC(=O)c2c(F)c(F)c(F)c(F)c2F)sc2c1CCN(CC)C2` [4{3,3,0}, ethyl 6-ethyl-2-(perfluorobenzamido)-4,5,6,7-tetrahydrothieno[2,3-c]pyridine-3-carboxylate], which MIC is on record?
**A.** 0.2 to 0.44 µM (≈ 0.0897 to 0.197 µg/mL)
